Reference: ChEMBL document CHEMBL1125974, “Synthesis of (+/)1-Aza-carbocyclic-pyrimidine-2,3-dideoxynucleoside analogues as potential anti-HIV agents” (Bioorg Med Chem Lett, 1991)

Tested on: MT4
Experiment: Tested for inhibitory activity against HIV in whole cell assay (MT-4, RF strain of HIV-1) at a 100 ug/ ml); Inactive and Not toxic
Assay type: functional, cell-based
Conditions: Homo sapiens

How did the Activity turn out when `O=c1ccn(N2CCC(CO)C2)c(=O)[nH]1` (stereo not drawn) was run?
Its Activity is “Non-toxic”.

With `Nc1ccn(N2CCC(CO)C2)c(=O)n1` (stereo not drawn) as the compound, how does the Activity read?
Its Activity is “Non-toxic”.

With `Cc1cn(N2CCC(CO)C2)c(=O)[nH]c1=O` (stereo not drawn) as the compound, how does the Activity read?
Its Activity is “Non-toxic”.
